“And” between values parts separate entries of the source, which are not always exact repeats. Identical values can stand only once. ± gives the expanded uncertainty stated by the source.

The data set in a line: cn = amount concentration of the nth substance listed, in mol/dm3. The following applies: 101 kPa, Liquid, c1 = 2; for speed of sound: Linear variable-path acoustic interferometer; for mass density: Pycnometric method.

For `[Cl-].[K+]` [potassium chloride] + O, the speed of sound (commonly how fast a sound wave travels through the sample) reads like this: (298.15 K) 1595.2 ± 1.8 m/s; (303.15 K) 1605.9 ± 1.8 m/s; (308.15 K) 1610.2 ± 1.8 m/s; (313.15 K) 1616.4 ± 1.8 m/s; (318.15 K) 1621.4 ± 1.8 m/s; (323.15 K) 1626.5 ± 1.8 m/s. In addition, the mass density (commonly mass per unit of volume) is, setting by setting: (298.15 K) 1089.1 ± 0.4 kg/m3; (303.15 K) 1087.5 ± 0.4 kg/m3; (308.15 K) 1085.6 ± 0.4 kg/m3; (313.15 K) 1083.4 ± 0.4 kg/m3; (318.15 K) 1080.9 ± 0.4 kg/m3; (323.15 K) 1078.3 ± 0.5 kg/m3.

Take `O=[N+]([O-])[O-].[K+]` [potassium nitrate] + O: the speed of sound by setting is: (298.15 K) 1562 ± 1.7 m/s; (303.15 K) 1569.4 ± 1.8 m/s; (308.15 K) 1575.8 ± 1.8 m/s and 1575 ± 1.8 m/s; (313.15 K) 1580 ± 1.8 m/s; (318.15 K) 1584.6 ± 1.8 m/s and 1584.5 ± 1.8 m/s; (323.15 K) 1588.9 ± 1.8 m/s and 1588.8 ± 1.8 m/s. Also, the mass density (298.15 K) was found to be 1122.9 ± 0.4 kg/m3; the mass density (303.15 K) is on record as 1120.6 ± 0.4 kg/m3; the mass density (308.15 K) is listed as 1118 ± 0.4 kg/m3; the mass density (313.15 K) came to 1115 ± 0.4 kg/m3; the mass density (318.15 K) is 1111.8 ± 0.5 kg/m3; the mass density (323.15 K) was determined as 1108.2 ± 0.5 kg/m3.

Values taken from the NIST ThermoML archive (doi:10.1016/j.tca.2008.10.023).
